Assay results reported in US20230340498A1, “COMPOSITIONS AND METHODS FOR INDUCIBLE ALTERNATIVE SPLICING REGULATION OF GENE EXPRESSION” (The Children's Hospital of Philadelphia, priority 2020, published 2023).

Tests used:
SMN2 exon 7 = experiment: SMN2-on cassette exon 7 splicing assay (RT-PCR) in transfected HEK293 cells; format: cell-based, Human; details: LMI070 compared with RG7800
Description: Cell culture, transfection, and LMI070/RG7800 treatment. Human embryonic kidney (HEK293) cells (obtained from CHOP Research Vector Core stock) were maintained in DMEM media containing 10% Fetal Bovine Serum (FBS), 1% L-Glutamine and 1% penicillin/streptomycin at 37° C. with 5% CO2. Cells were cultured in 24 well plates and transfected at 80-90% confluence using Lipofectamine 2000 transfection reagent, according to the manufacturer’s protocol. For all experiments, 4 hours after plasmid transfection, cells were treated with LMI070 (MedChemExpress, HY-19620, suspended in DMSO) or RG7800 (MedChemExpress, HY-101792A, suspended in H2O) at the indicated concentrations. Cells were tested for mycoplasma by Research Vector Core. […]
RNA extraction, RT-PCR, and Splicing assays. […] To determine HTT expression levels after transfection, RNA samples were quantified by spectrophotometry and subsequently cDNAs generated from […] of total RNA with random hexamers (TaqMan RT reagents, Applied Biosystems). […] Relative HTT gene expression was determined using the ddCt method. […] Splicing was determined by PCR using the Phusion High-Fidelity polymerase (Thermofisher) and PCR products separated on a 2.5% agarose gel pre-stained with EtBr and spliced-in and spliced-out band densitometry performed using with the ChemiDoc Imaging System (BioRad) and Image Lab analysis software. […]

AAV9.X^on.eGFP = experiment: In vivo induction of AAV9.X^on.eGFP in mice by oral LMI070
Description: Animals and histology. Animal protocols were approved by The Children’s Hospital of Philadelphia Institutional Animal Care and Use Committee. Five to six-week-old male C57Bl6/j mice were obtained from Jackson Laboratories (Bar Harbor, ME, USA). AAV vectors (AAV9. X^on.eGFP or AAVPHBeB.X^on.eGFP; generated at the CHOP Research Vector Core) were administrated by retroorbital injection at 7-8 weeks of age with a total of 3E11 vg in 150 µL infused. After 4 weeks, a single dose of LMI070 (5 or 50 mg/kg, MedChemExpress HY-19620) or vehicle solution was administrated by oral gavage. After 18-24 h, mice used for biochemical or molecular studies were anesthetized and perfused with 0.9% cold saline mixed with 2-ml RNAlater (Ambion) solution. Brains and liver samples were collected, flash frozen in liquid nitrogen, and stored at -80 C until use. For immunohistochemistry studies, mice were perfused with 15 mL ice-cold 0.1 M PBS followed by 15 mL 4% paraformaldehyde. For brain sections, eGFP visualization was done by IHC using rabbit anti-GFP antibody (Invitrogen, 1:200) followed by Alexa488-conjugated goat anti-rabbit (Invitrogen, 1:500) and Alexa488-conjugated chicken anti-goat (Invitrogen, 1:500). Slices were mounted on Superfrost plus slides and coverslips mounted using fluoro-gel mounting media. Sections were analyzed using a DM6000B Leica microscope equipped with a L5 ET filter cube (ex:em of 470±20:525±15 nm and dichroic 495 nm), a 20X HC APO PLAN (N.A. 0.70) lens connected to a Sola Light Engine LED light source (Lumencor). Images were collected with a Hammatsu Orca flash4.0 monochrome camera controlled by Leica LAS X (v.3.0.3) software. Brain images represent a 7.98 µm thick z-stack deconvoluted by 3 iterations of the Blind algorithm.
RNA extraction, RT-PCR, and Splicing assays. Total RNA was extracted using Trizol (Life Technologies) according to the manufacturer’s protocol, with the exception of 1 µL Glycoblue (Life Technologies) in addition to the aqueous phase on the isopropanol precipitation step and a single wash with cold 70% ethanol. To determine HTT expression levels after transfection, RNA samples were quantified by spectrophotometry and subsequently cDNAs generated from […] of total RNA with random hexamers (TaqMan RT reagents, Applied Biosystems). To determine human HTT expression levels in HEK293 cells, we used TaqMan probes for human HTT and glyceraldehyde 3-phosphate dehydrogenase (GAPDH) mRNAs obtained from Applied Biosystems. Relative HTT gene expression was determined using the ddCt method. To determine splicing of the SMN2-on and Xon switches, 2 µg of total RNA from HEK293 cells or tissue samples was treated with DNAseI Free kit (Thermofisher) followed by cDNA generation using the High capacity cDNA kit (Thermofisher). Splicing was determined by PCR using the Phusion High-Fidelity polymerase (Thermofisher) and PCR products separated on a 2.5% agarose gel pre-stained with EtBr and spliced-in and spliced-out band densitometry performed using with the ChemiDoc Imaging System (BioRad) and Image Lab analysis software. Splicing induction from mouse tissues was determined using two custom TaqMan assays designed to determine total or LMI070-spliced in mRNA transcripts. The percentage of induction was determined by dividing the average Ct novel exon and average Ct Total, relative to control animals injected with AAV virus plus vehicle.
Western Blots. HEK293 cells were rinsed and lysed with Passive Lysis Buffer (PBL, Promega), protein concentrations determined using the DC protein assay (Bio-Rad), and 10-20 µg of protein loaded on a 3%-8% NuPAGE Tris-Acetate Gel in tris-acetate buffer (Novex Life Technologies) or a 4-12% NuPAGE TrisBis NuPAGE gels in MES buffer (Novex Life Technologies) to determine HTT, SaCas9, or eGFP protein levels, respectively, with β-catenin as loading control. […]

[1] = spliced expression cassette relative to vehicle, LMI070 50 mg/kg

Q: Which results are given for CC1(C)CC(Oc2ccc(-c3ccc(-c4cn[nH]c4)cc3O)nn2)CC(C)(C)N1 [LMI070, 5-(1H-Pyrazol-4-yl)-2-(6-((2,2,6,6-tetramethylpiperidin-4-yl)oxy)pyridazin-3-yl)phenol]?
A: relative activity in the setting of the SMN2-on cassette (SMN2 exon 7): more active than RG7800; eGFP expression in sections from liver (AAV9.X^on.eGFP; AAV9.X^on.eGFP 3E11 vg/mouse IV, single dose LMI070 5 or 50 mg/kg, 24 h later): notable eGFP expression; induction in liver after repeat dosing (AAV9.X^on.eGFP; LMI070 50 mg/kg oral, second dose after one week washout, histology, western blot, splicing assay): evident in liver after the first and the second dose; induction in skeletal muscle and heart (AAV9.X^on.eGFP; LMI070 50 mg/kg oral, histology and splicing assay): notable; protein levels and novel exon splicing versus dose (AAV9.X^on.eGFP; liver, LMI070 5 or 50 mg/kg): directly correlated to the LMI070 dose; relative level of induction in heart (AAV9.X^on.eGFP; [1]): ~ 3000 fold; relative level of induction in liver (AAV9.X^on.eGFP; [1]): ~1000 fold
